Test results as given in patent US12679843B2, “Pyrrolopyrimidine amines as complement inhibitors” (BioCryst Pharmaceuticals, Inc., priority 2020, dated 2026).

Target: Factor D (Homo sapiens, UniProt P00746)
Assay: Factor D esterolytic assay (Z-Lys-SBzl thioester substrate, DTNB, 405 nm)
Format: biochemical
Settings: substrate Z-Lys-SBzl 1.29 mM, 100 mM HEPES, 500 mM NaCl, pH 7.5, 10% DMSO, tested a minimum of three times
Method: The IC50 value of a compound (i.e., the concentration of the compound that inhibits 50% of the enzymatic activity) was calculated according to the procedure reported in U.S. Pat. No. 6,653,340 B1, e.g., column 74 (incorporated by reference).
Specifically, the compounds were dissolved in a stock solution of DMSO at 10.0 or 100 mM. A portion of this stock solution was added to assay buffer in a final volume of 50 μL. Controls included buffer alone and enzyme solutions to which DMSO was added. Substrate was added to the reaction wells immediately or after incubation at room temperature. The reaction rates were measured spectrophotometrically by the generation of product at 405 nm for 600 sec. Background absorbance at 690 nm was measured and subtracted from the absorbance at 405 nm for each well.
The reaction rate for enzyme alone was compared to the rate of enzyme in the presence of inhibitor and the percent inhibition was calculated as shown below: Percent Inhibition=[Rate without inhibitor−Rate with inhibitor)/(Rate without inhibitor)]−100 Factor D Esterolytic Assay:
An established esterolytic assay for the measurement of Factor D activity and inhibition of Factor D activity was used (Kam, C. M.; McRae, B. J.; Harper, J. W.; Niemann, M. A.; Volanakis, J. E.; Powers, J. C. Human complement proteins D. C2, and B Active site mapping with peptide thioester substrates. J Biol. Chem. 1987, 262, 3444-3451). For this assay Z-Lys-SBzl, 1.29 mM (Kim, S.; Narayana, S. V. L; Volanakis, J. E. Mutational analysis of the substrate binding site of human complement Factor D. Biochemistry, 1994, 33, 14393-14399) was used as the substrate for Factor D ([…]). Hydrolysis of this compound by Factor D liberated a free sulfhydryl group which is then reacted with 5,5′-dithiobis(2-nitrobenzoic acid) producing an intense yellow color (Habeeb, A. F. S. A. Reaction of protein sulfhydryl groups with Ellman's Reagent. Methods in Enzymol. 1976, 25, 457-464). The assays were performed in 96 well microtiter plates and rates of hydrolysis were monitored at 405 nm on a Biotek Synergy H1 plate reader. Hydrolysis rates were reported as change in mOD/min. The assay was conducted in 100 mM HEPES, 500 mM NaCl, pH 7.5 containing 10% DMSO in a final volume of 50 μL per well.
An IC50, a compound concentration which inhibits 50% of the enzymatic activity, was calculated. Compounds in the examples were tested a minimum of three times.

Sequence of Factor D (P00746 26-253): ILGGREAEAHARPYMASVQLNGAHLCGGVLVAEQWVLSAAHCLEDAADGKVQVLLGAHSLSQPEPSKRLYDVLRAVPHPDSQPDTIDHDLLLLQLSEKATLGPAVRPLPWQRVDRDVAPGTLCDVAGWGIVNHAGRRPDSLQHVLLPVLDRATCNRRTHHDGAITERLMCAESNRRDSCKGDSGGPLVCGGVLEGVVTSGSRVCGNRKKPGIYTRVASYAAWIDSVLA

Structure (SMILES)	IC50 [nM]
NC[C@@H]1C[C@@H](C(=O)Nc2cccc(Br)n2)N(C(=O)Cn2c3ccc(C(F)(F)F)cc3c3c(N)ncnc32)C1 [Compound 211e, (2S,4S)-1-(2-(4-amino-6-(trifluoromethyl)-9H-pyrimido[4,5-b]indol-9-yl)acetyl)-4-(aminomethyl)-N-(6-bromopyridin-2-yl)pyrrolidine-2-carboxamide]	100 to 1000
Cc1cc(Br)cc2c3c(N)ncnc3n(CC(=O)N3[C@@H]4C[C@@H]4C[C@H]3C(=O)Nc3cccc(Br)n3)c12 [Compound 192g, (1R,3S,5R)-2-(2-(4-amino-6-bromo-8-methyl-9H-pyrimido[4,5-b]indol-9-yl)acetyl)-N-(6-bromopyridin-2-yl)-2-azabicyclo[3.1.0]hexane-3-carboxamide]	< 100
Cc1cc(C(F)(F)F)cc2c3c(N)ncnc3n(CC(=O)N3[C@@H]4C[C@@H]4C[C@H]3C(=O)Nc3cncc(Br)n3)c12 [Compound 295a, (1R,3S,5R)-2-(2-(4-amino-8-methyl-6-(trifluoromethyl)-9H-pyrimido[4,5-b]indol-9-yl)acetyl)-N-(6-bromopyrazin-2-yl)-2-azabicyclo[3.1.0]hexane-3-carboxamide]	< 100
C[C@@]12C[C@@H](C(=O)Nc3cccc(Br)n3)N(C(=O)Cc3ccc4c(N)ncnn34)[C@@H]1C2 [Compound 71a, (1R,3S,5R)-2-(2-(4-aminopyrrolo[2,1-f][1,2,4]triazin-7-yl)acetyl)-N-(6-bromopyridin-2-yl)-5-methyl-2-azabicyclo[3.1.0]hexane-3-carboxamide]	100 to 1000
C[C@@]12C[C@@H](C(=O)Nc3cccc(Br)n3)N(C(=O)Cn3c4ccccc4c4c(N)ncnc43)[C@@H]1C2 [Compound 9a, (1R,3S,5R)-2-(2-(4-amino-9H-pyrimido[4,5-b]indol-9-yl)acetyl)-N-(6-bromopyridin-2-yl)-5-methyl-2-azabicyclo[3.1.0]hexane-3-carboxamide]	< 100
Nc1nc(N)c2ncn(CC(=O)N3[C@@H]4C[C@@H]4C[C@H]3C(=O)Nc3cccc(Br)n3)c2n1 [Compound 92b, (1R,3S,5R)—N-(6-bromopyridin-2-yl)-2-(2-(2,6-diamino-9H-purin-9-yl)acetyl)-2-azabicyclo[3.1.0]hexane-3-carboxamide]	> 1000
Cc1cc(-c2ccccc2)cc2c3c(N)ncnc3n(CC(=O)N3[C@H](C(=O)Nc4cccc(Br)n4)C[C@@]4(C)C[C@@H]34)c12 [Compound 230a, (1R,3S,5R)-2-(2-(4-amino-8-methyl-6-phenyl-9H-pyrimido[4,5-b]indol-9-yl)acetyl)-N-(6-bromopyridin-2-yl)-5-methyl-2-azabicyclo[3.1.0]hexane-3-carboxamide]	< 100
Nc1nc(N)c2ccn(CC(=O)N3[C@@H]4C[C@@H]4C[C@H]3C(=O)Nc3cccc(Br)n3)c2n1 [Compound 87f, (1R,3S,5R)—N-(6-bromopyridin-2-yl)-2-(2-(2,4-diamino-7H-pyrrolo[2,3-d]pyrimidin-7-yl)acetyl)-2-azabicyclo[3.1.0]hexane-3-carboxamide]	> 1000
COC(=O)c1cc(OC)c2c(c1)c1c(N)ncnc1n2CC(=O)N1[C@@H]2C[C@@H]2C[C@H]1C(=O)Nc1cccc(Br)n1 [Compound 240g, methyl 4-amino-9-(2-((1R,3S,5R)-3-((6-bromopyridin-2-yl)carbamoyl)-2-azabicyclo[3.1.0]hexan-2-yl)-2-oxoethyl)-8-methoxy-9H-pyrimido[4,5-b]indole-6-carboxylate]	< 100
C[C@@]12C[C@@H](C(=O)Nc3cccc(Br)n3)N(C(=O)Cn3c4cc(F)c(F)cc4c4c(N)ncnc43)[C@@H]1C2 [Compound 387a, (1R,3S,5R)-2-(2-(4-amino-6,7-difluoro-9H-pyrimido[4,5-b]indol-9-yl)acetyl)-N-(6-bromopyridin-2-yl)-5-methyl-2-azabicyclo[3.1.0]hexane-3-carboxamide]	< 100
C[C@@]12C[C@@H](C(=O)Nc3cccc(Br)n3)N(C(=O)Cn3c4cccc(C(=O)O)c4c4c(N)ncnc43)[C@@H]1C2 [Compound 222a, 4-amino-9-(2-((1R,3S,5R)-3-((6-bromopyridin-2-yl)carbamoyl)-5-methyl-2-azabicyclo[3.1.0]hexan-2-yl)-2-oxoethyl)-9H-pyrimido[4,5-b]indole-5-carboxylic acid]	> 1000
COc1cccc2c3c(N)ncnc3n(CC(=O)N3[C@H](C(=O)Nc4cccc(Br)n4)C[C@@]4(C)C[C@@H]34)c12 [Compound 173a, (1R,3S,5R)-2-(2-(4-amino-8-methoxy-9H-pyrimido[4,5-b]indol-9-yl)acetyl)-N-(6-bromopyridin-2-yl)-5-methyl-2-azabicyclo[3.1.0]hexane-3-carboxamide]	< 100
Nc1ncnc2c1c1cc(C(F)(F)F)ccc1n2CC(=O)N1[C@@H]2C[C@@H]2C[C@H]1C(=O)Nc1cncc(Br)n1 [Compound 260a, (1R,3S,5R)-2-(2-(4-amino-6-(trifluoromethyl)-9H-pyrimido[4,5-b]indol-9-yl)acetyl)-N-(6-bromopyrazin-2-yl)-2-azabicyclo[3.1.0]hexane-3-carboxamide]	< 100
Nc1ncnc2c1c(-c1cc3ccccc3[nH]1)cn2CC(=O)N1C[C@H](F)C[C@H]1C(=O)NCc1cccc(Cl)c1F [Compound 133b, (2S,4R)-1-(2-(4-amino-5-(1H-indol-2-yl)-7H-pyrrolo[2,3-d]pyrimidin-7-yl)acetyl)-N-(3-chloro-2-fluorobenzyl)-4-fluoropyrrolidine-2-carboxamide]	< 100
Cc1cc2c(N)ncnc2n1CC(=O)N1[C@@H]2C[C@@H]2C[C@H]1C(=O)Nc1cccc(Br)n1 [Compound 158e, (1R,3S,5R)-2-(2-(4-amino-6-methyl-7H-pyrrolo[2,3-d]pyrimidin-7-yl)acetyl)-N-(6-bromopyridin-2-yl)-2-azabicyclo[3.1.0]hexane-3-carboxamide]	100 to 1000

Continued, values first:

IC50 [nM]	Structure (SMILES)
< 100	Nc1ncnc2c1c1cc(C(F)(F)F)cc(F)c1n2CC(=O)N1[C@@H]2C[C@@H]2C[C@H]1C(=O)Nc1cccc(Br)n1 [Compound 369g, (1R,3S,5R)-2-(2-(4-amino-8-fluoro-6-(trifluoromethyl)-9H-pyrimido[4,5-b]indol-9-yl)acetyl)-N-(6-bromopyridin-2-yl)-2-azabicyclo[3.1.0]hexane-3-carboxamide]
< 100	COc1ccc2c(c1)c1c(N)ncnc1n2CC(=O)N1[C@H](C(=O)Nc2nc(Br)ccc2C)C[C@@]2(C)C[C@@H]12 [Compound 252a, (1R,3S,5R)-2-(2-(4-amino-6-methoxy-9H-pyrimido[4,5-b]indol-9-yl)acetyl)-N-(6-bromo-3-methylpyridin-2-yl)-5-methyl-2-azabicyclo[3.1.0]hexane-3-carboxamide]
100 to 1000	Nc1ncnc2c1ncn2CC(=O)N1[C@H](C(=O)NCc2cccc(Cl)c2F)C[C@@H]2C[C@@H]21 [Compound 109e, (1S,3S,5S)-2-(2-(6-amino-9H-purin-9-yl)acetyl)-N-(3-chloro-2-fluorobenzyl)-2-azabicyclo[3.1.0]hexane-3-carboxamide]
< 100	COCc1ccc2c(c1)c1c(N)ncnc1n2CC(=O)N1[C@H](C(=O)Nc2cccc(Br)n2)C[C@@]2(C)C[C@@H]12 [Compound 340a, (1R,3S,5R)-2-(2-(4-amino-6-(methoxymethyl)-9H-pyrimido[4,5-b]indol-9-yl)acetyl)-N-(6-bromopyridin-2-yl)-5-methyl-2-azabicyclo[3.1.0]hexane-3-carboxamide]
< 100	Nc1ncnc2c1c1cccc(Br)c1n2CC(=O)N1[C@@H]2C[C@@H]2C[C@H]1C(=O)Nc1cccc(Br)n1 [Compound 35f, (1R,3S,5R)-2-(2-(4-amino-8-bromo-9H-pyrimido[4,5-b]indol-9-yl)acetyl)-N-(6-bromopyridin-2-yl)-2-azabicyclo[3.1.0]hexane-3-carboxamide]
< 100	Nc1ncnc2c1c1cc(C(F)(F)F)ccc1n2CC(=O)N1C[C@H](F)C[C@H]1C(=O)NCc1cccc(Cl)c1F [Compound 25a, (2S,4R)-1-(2-(4-amino-6-(trifluoromethyl)-9H-pyrimido[4,5-b]indol-9-yl)acetyl)-N-(3-chloro-2-fluorobenzyl)-4-fluoropyrrolidine-2-carboxamide]
< 100	Cc1nc(C(F)(F)F)cc2c3c(N)ncnc3n(CC(=O)N3[C@H](C(=O)Nc4cccc(Br)n4)C[C@@]4(C)C[C@@H]34)c12 [Compound 347a, (1R,3S,5R)-2-(2-(4-amino-8-methyl-6-(trifluoromethyl)-9H-pyrido[4′,3′:4,5]pyrrolo[2,3-d]pyrimidin-9-yl)acetyl)-N-(6-bromopyridin-2-yl)-5-methyl-2-azabicyclo[3.1.0]hexane-3-carboxamide]
